20 compounds from patent US11912693B2, “Compounds for modulating S1P1 activity and methods of using the same” (TREVENA, INC., priority 2017, dated 2024) can be followed below.

Experiment [1] concerns the target T1, human sphingosine-1-phosphate receptor 1 (S1P1) (Homo sapiens (Human), UniProt P21453). The experiment is described as follows: β-Arrestin2 recruitment assay (PathHunter), S1P1 CHO-K1 cells. Conditions: for Emax: CHO-K1, efficacy (SPAN) normalized to fingolimod, read-out: hS1P1 B-arrestin2 SPAN; for hS1P1 B-arrestin2 pEC50: β-arrestin2 recruitment, S1P1 CHO-K1 cells. The experiment is classed as cell-based. The method, boiled down:
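Enzyme-fragment complementation read-out: agonist-driven β-arrestin2 binding to ProLink-tagged human S1P1 in stable CHO-K1 cells restores β-galactosidase, measured 1 h at room temperature after a 60 min 37° C. compound incubation. Potency as pEC50, efficacy relative to fingolimod (SPAN).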
Background: Activated receptors often draw arrestin, which recruitment assays turn into a signal.
Target sequence in this assay (P21453 whole entry, looked up, the tested form may be a part): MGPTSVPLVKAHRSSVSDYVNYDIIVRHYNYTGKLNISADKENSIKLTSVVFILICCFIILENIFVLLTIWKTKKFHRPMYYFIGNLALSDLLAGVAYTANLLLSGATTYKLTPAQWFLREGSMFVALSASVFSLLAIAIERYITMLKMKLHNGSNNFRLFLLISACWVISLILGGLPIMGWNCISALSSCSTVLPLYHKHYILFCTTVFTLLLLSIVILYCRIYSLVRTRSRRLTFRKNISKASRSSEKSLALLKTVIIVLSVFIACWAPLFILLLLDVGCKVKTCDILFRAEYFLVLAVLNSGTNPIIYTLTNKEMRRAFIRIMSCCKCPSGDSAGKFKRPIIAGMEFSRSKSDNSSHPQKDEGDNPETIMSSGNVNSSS
Target sequence in this assay (P32121 whole entry partner, looked up, the tested form may be a part): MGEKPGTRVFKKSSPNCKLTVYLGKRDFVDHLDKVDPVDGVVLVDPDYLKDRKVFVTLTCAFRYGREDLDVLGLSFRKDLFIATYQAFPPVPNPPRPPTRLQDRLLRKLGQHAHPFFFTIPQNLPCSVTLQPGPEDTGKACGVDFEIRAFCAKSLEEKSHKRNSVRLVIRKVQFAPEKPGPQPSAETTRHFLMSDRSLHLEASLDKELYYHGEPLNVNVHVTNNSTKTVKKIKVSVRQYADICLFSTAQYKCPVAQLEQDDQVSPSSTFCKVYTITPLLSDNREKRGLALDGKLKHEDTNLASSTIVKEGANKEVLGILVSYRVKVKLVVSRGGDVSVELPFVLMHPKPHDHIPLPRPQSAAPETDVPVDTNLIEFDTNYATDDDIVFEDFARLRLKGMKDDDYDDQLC

The target of experiment [2] is T1, human sphingosine-1-phosphate receptor 1 (S1P1). The experiment is described as follows: Inhibition of cAMP production (HTRF cAMP HiRange), S1P1 CHO-K1 cells. The experiment is classed as cell-based. Conditions: for Emax: CHO-K1, efficacy (SPAN) normalized to fingolimod, read-out: hS1P1 cAMP SPAN; for hS1P1 cAMP pEC50: inhibition of cAMP production, S1P1 CHO-K1 cells. The method, boiled down:
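CHO-K1 cells stably co-expressing human S1P1 (C-terminal Prolink tag) and EA-β-arrestin2 were grown in AssayComplete Media 6 at 37° C. and 5% CO2, plated, and incubated overnight. Agonist-driven inhibition of intracellular cAMP was read by TR-FRET with the HTRF cAMP HiRange kit on a PheraStar reader. Potency is pEC50, and efficacy (SPAN) is normalized to fingolimod.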
Target sequence in this assay (P21453 whole entry, looked up, the tested form may be a part): as the sequence (P21453 whole entry, looked up, the tested form may be a part) above
A general note: Changes in cAMP serve as a functional read-out for many G protein-coupled receptors.

With `CCC1(CC)CC(=O)c2cc(-c3nc(-c4ccc(N)cc4)no3)ccc2O1` [Compound 256, 6-(3-(4-aminophenyl)-1,2,4-oxadiazol-5-yl)-2,2-diethylchroman-4-one], in experiment [1], the Emax was above 75% and the “hS1P1 B-arrestin2 pEC50” value was above 5. In experiment [2], the Emax is above 75% and the “hS1P1 cAMP pEC50” value was above 6.5.

Regarding `CCC1(CC)CC(=O)c2cc(-c3nc(-c4ccccc4OC)ns3)ccc2O1` [Compound 257, 2,2-diethyl-6-(3-(2-methoxyphenyl)-1,2,4-thiadiazol-5-yl)chroman-4-one], the “hS1P1 B-arrestin2 pEC50” value in experiment [1] was below 5. For the same compound, the “hS1P1 cAMP pEC50” value in experiment [2] was below 6.5.

With `CCC1(CC)CC(=O)c2cc(-c3nc(-c4cccnc4O)no3)ccc2O1` [Compound 258, 2,2-diethyl-6-(3-(2-hydroxypyridin-3-yl)-1,2,4-oxadiazol-5-yl)chroman-4-one], the “hS1P1 B-arrestin2 pEC50” value in experiment [1] is given as below 5. In addition, the “hS1P1 cAMP pEC50” value in experiment [2] was below 6.5.

For the compound `COc1cccc(F)c1-c1noc(-c2ccc3c(c2)nnn3C(C)C)n1` [Compound 260, 3-(2-fluoro-6-methoxy-phenyl)-5-(1-isopropylbenzotriazol-5-yl)-1,2,4-oxadiazole], in experiment [1], the Emax is above 75% and the “hS1P1 B-arrestin2 pEC50” value is given as below 5. Moreover, in experiment [2], the Emax is above 75% and the “hS1P1 cAMP pEC50” value is listed as below 6.5.

`CCC1(CC)CC(=O)c2cc(-c3nc(-c4cccc(Cl)c4)no3)ccc2O1` [Compound 261, 6-[3-(3-chlorophenyl)-1,2,4-oxadiazol-5-yl]-2,2-diethyl-chroman-4-one]: in experiment [1], the “hS1P1 B-arrestin2 pEC50” value is listed as above 5. Moreover, the “hS1P1 cAMP pEC50” value in experiment [2] is below 6.5.

Turning to `Cc1ccncc1-c1noc(-c2ccc3nnn(C(C)C)c3c2)n1` [Compound 264, 6-[3-(4-methylpyridin-3-yl)-1,2,4-oxadiazol-5-yl]-1-(propan-2-yl)-1H-1,2,3-benzotriazole], in experiment [1], the Emax was below 75% and the “hS1P1 B-arrestin2 pEC50” value is on record as below 5. Moreover, in experiment [2], the Emax was below 75% and the “hS1P1 cAMP pEC50” value is listed as below 6.5.

`CCC1(CC)CC(=O)c2cc(-c3nc(-c4sccc4C)no3)ccc2O1` [Compound 265, 2,2-diethyl-6-(3-(3-methylthiophen-2-yl)-1,2,4-oxadiazol-5-yl)chroman-4-one]: in experiment [1], the Emax is below 75% and the “hS1P1 B-arrestin2 pEC50” value is reported as above 5. For the same compound, in experiment [2], the Emax is above 75% and the “hS1P1 cAMP pEC50” value is given as above 6.5.

For `CCC1(CC)CC(=O)c2cc(-c3nc(-c4ccc(S(=O)(=O)NC)cc4)no3)ccc2O1` [Compound 266, 4-(5-(2,2-diethyl-4-oxochroman-6-yl)-1,2,4-oxadiazol-3-yl)-N-methylbenzenesulfonamide], the “hS1P1 B-arrestin2 pEC50” value in experiment [1] is listed as above 5. The “hS1P1 cAMP pEC50” value in experiment [2] is on record as below 6.5.

In the case of `CCC1(CC)CC(=O)c2cc(-c3nc(-c4ccccc4OC)no3)ccc2O1` [Compound 268, 2,2-diethyl-6-[3-(2-methoxyphenyl)-1,2,4-oxadiazol-5-yl]chroman-4-one], the “hS1P1 B-arrestin2 pEC50” value in experiment [1] is listed as above 5. Moreover, in experiment [2], the “hS1P1 cAMP pEC50” value was above 6.5.

With `CCC1(CC)CC(=O)c2cc(-c3nc(-c4ccc(C)cc4)no3)ccc2O1` [Compound 269, 2,2-diethyl-6-[3-(p-tolyl)-1,2,4-oxadiazol-5-yl]chroman-4-one], in experiment [1], the Emax was below 75% and the “hS1P1 B-arrestin2 pEC50” value is given as below 5. Also, in experiment [2], the Emax is below 75% and the “hS1P1 cAMP pEC50” value is given as below 6.5.

Turning to `C=CCn1nnc2cc(-c3nc(-c4ccccc4)no3)ccc21` [Compound 270, 5-(3-phenyl-1,2,4-oxadiazol-5-yl)-1-(prop-2-en-1-yl)-1H-1,2,3-benzotriazole], the “hS1P1 B-arrestin2 pEC50” value in experiment [1] is listed as below 5. Moreover, the “hS1P1 cAMP pEC50” value in experiment [2] is below 6.5.

As to `CC(C)CCn1nnc2cc(-c3nc(-c4ccccc4)no3)ccc21` [Compound 271, 1-(3-methylbutyl)-5-(3-phenyl-1,2,4-oxadiazol-5-yl)-1H-1,2,3-benzotriazole], in experiment [1], the Emax was below 75% and the “hS1P1 B-arrestin2 pEC50” value was below 5. For the same compound, in experiment [2], the Emax was below 75% and the “hS1P1 cAMP pEC50” value is given as below 6.5.

As to `COc1cncc(-c2nc(-c3ccc4c(c3)nnn4C(C)C)no2)c1` [Compound 272, 3-(1-isopropyl-1H-benzo[d][1,2,3]triazol-5-yl)-5-(5-methoxypyridin-3-yl)-1,2,4-oxadiazole], in experiment [1], the Emax was below 75% and the “hS1P1 B-arrestin2 pEC50” value is given as below 5. For the same compound, in experiment [2], the Emax is below 75% and the “hS1P1 cAMP pEC50” value is given as below 6.5.

As to `Cc1cccc(-c2nc(-c3ccc4c(c3)nnn4C3CCCC3)no2)c1` [Compound 273, 3-(1-cyclopentyl-1H-benzo[d][1,2,3]triazol-5-yl)-5-(m-tolyl)-1,2,4-oxadiazole], the “hS1P1 B-arrestin2 pEC50” value in experiment [1] was below 5. The “hS1P1 cAMP pEC50” value in experiment [2] is given as below 6.5.

On to `CC1(C)CC(=O)c2cc(-c3nc(-c4cccnc4)no3)ccc2O1` [Compound 274, 2,2-dimethyl-6-[3-(pyridin-3-yl)-1,2,4-oxadiazol-5-yl]-3,4-dihydro-2H-1-benzopyran-4-one], for which, in experiment [1], the Emax is below 75% and the “hS1P1 B-arrestin2 pEC50” value is given as above 5. Besides, in experiment [2], the Emax was above 75% and the “hS1P1 cAMP pEC50” value is below 6.5.

Turning to `COc1ccc(-c2nc(-c3ccc4c(c3)nnn4C3CCCC3)no2)cc1OC` [Compound 275, 3-(1-cyclopentyl-1H-benzo[d][1,2,3]triazol-5-yl)-5-(3,4-dimethoxyphenyl)-1,2,4-oxadiazole], in experiment [1], the Emax was below 75% and the “hS1P1 B-arrestin2 pEC50” value is below 5. Besides, in experiment [2], the Emax was below 75% and the “hS1P1 cAMP pEC50” value is given as below 6.5.

Consider `CC(C)n1nnc2cc(-c3noc(-c4ccccc4C#N)n3)ccc21` [Compound 279, 2-(3-(1-isopropyl-1H-benzo[d][1,2,3]triazol-5-yl)-1,2,4-oxadiazol-5-yl)benzonitrile], for which, in experiment [1], the Emax is above 75% and the “hS1P1 B-arrestin2 pEC50” value is recorded as below 5. Further, in experiment [2], the Emax is above 75% and the “hS1P1 cAMP pEC50” value was below 6.5.

In the case of `O=C1CC2(CCCCC2)Oc2ccc(-c3nc(-c4ccncc4)no3)cc21` [Compound 280, 6-[3-(pyridin-4-yl)-1,2,4-oxadiazol-5-yl]-3,4-dihydrospiro[1-benzopyran-2,1′-cyclohexane]-4-one], in experiment [1], the Emax was below 75% and the “hS1P1 B-arrestin2 pEC50” value is below 5. Moreover, in experiment [2], the Emax was below 75% and the “hS1P1 cAMP pEC50” value is reported as below 6.5.

For `COc1cc(-c2noc(-c3ccc4c(c3)nnn4C3CCCC3)n2)ccn1` [Compound 281, 1-cyclopentyl-5-[3-(2-methoxypyridin-4-yl)-1,2,4-oxadiazol-5-yl]-1H-1,2,3-benzotriazole], in experiment [1], the Emax was below 75% and the “hS1P1 B-arrestin2 pEC50” value is below 5. In addition, in experiment [2], the Emax is below 75% and the “hS1P1 cAMP pEC50” value is recorded as below 6.5.

`CC(C)n1nnc2cc(-c3nc(-c4ccccc4Br)no3)ccc21` [Compound 282, 5-[3-(2-bromophenyl)-1,2,4-oxadiazol-5-yl]-1-(propan-2-yl)-1H-1,2,3-benzotriazole]: in experiment [1], the Emax was above 75% and the “hS1P1 B-arrestin2 pEC50” value is on record as above 5. For the same compound, in experiment [2], the Emax was above 75% and the “hS1P1 cAMP pEC50” value is given as above 6.5.
